Source: US9670203B2 (BeiGene, LTD., priority 2013, dated 2017)

Legend:
[1] = target: B-Raf (V600E) (Homo sapiens (Human), UniProt P15056, V600E); assay: Raf IC50 assay, time-resolved fluorescence energy transfer, B-Raf (V600E); type: biochemical; settings: 0.1 mM ATP; read-out: IC50 (nM) B_Raf^V600E
Procedure: The enzyme was incubated with the compounds at room temperature for 60 minutes and the reactions were initiated by the addition of ATP and GST-MEK1. After reaction at room temperature for 60 minutes, an equal volume of stop/detection solution was added according to the manufacture's instruction (CisBio Bioassays). […] The IC50 for each compound was derived from fitting the dose-response % inhibition data to the four-parameter logistic model by Graphpad Prism software.

[2] = tested on: A375; assay: Anti-proliferative activity EC50 assay (CellTiter-Glo) in A375; type: cell-based; settings: Homo sapiens, A-375, 72 h; 3-day exposure; read-out: Cell Proliferation EC50 (nM) A375
Procedure: The growth-inhibitory activity of compounds in A375 and p61-A375, was determined using CellTiter-Glo luminescent cell viability assay (Promega). The 2,000 cells were seeded per well of a 96-well plate to ensure logarithmic growth could occur over the 3 days treatment period. Cells were left to attach for 16 hours, cells were treated in duplicate with a 10-point dilution series. Following a 3-day exposure to compounds disclosed herein, a volume of CellTiter-Glo reagent equal to the volume of cell culture medium present in each well was added. Mixture was mixed on an orbital shaker for 2 minutes to allow cell lysis, followed by 10 minutes incubation at room temperature to allow stabilization of luminescent signal, which corresponded to quantitation of ATP and thus the quantitation of metabolically active cells. Luminescent signal was measured using Pherastar FS reader (BMG Labtech).
EC50 values for growth inhibition were calculated by fitting dose-dependent data to the four-parameter logistic model using GraphPad Prism software.

Chain of B-Raf (V600E) (P15056 whole entry V600E): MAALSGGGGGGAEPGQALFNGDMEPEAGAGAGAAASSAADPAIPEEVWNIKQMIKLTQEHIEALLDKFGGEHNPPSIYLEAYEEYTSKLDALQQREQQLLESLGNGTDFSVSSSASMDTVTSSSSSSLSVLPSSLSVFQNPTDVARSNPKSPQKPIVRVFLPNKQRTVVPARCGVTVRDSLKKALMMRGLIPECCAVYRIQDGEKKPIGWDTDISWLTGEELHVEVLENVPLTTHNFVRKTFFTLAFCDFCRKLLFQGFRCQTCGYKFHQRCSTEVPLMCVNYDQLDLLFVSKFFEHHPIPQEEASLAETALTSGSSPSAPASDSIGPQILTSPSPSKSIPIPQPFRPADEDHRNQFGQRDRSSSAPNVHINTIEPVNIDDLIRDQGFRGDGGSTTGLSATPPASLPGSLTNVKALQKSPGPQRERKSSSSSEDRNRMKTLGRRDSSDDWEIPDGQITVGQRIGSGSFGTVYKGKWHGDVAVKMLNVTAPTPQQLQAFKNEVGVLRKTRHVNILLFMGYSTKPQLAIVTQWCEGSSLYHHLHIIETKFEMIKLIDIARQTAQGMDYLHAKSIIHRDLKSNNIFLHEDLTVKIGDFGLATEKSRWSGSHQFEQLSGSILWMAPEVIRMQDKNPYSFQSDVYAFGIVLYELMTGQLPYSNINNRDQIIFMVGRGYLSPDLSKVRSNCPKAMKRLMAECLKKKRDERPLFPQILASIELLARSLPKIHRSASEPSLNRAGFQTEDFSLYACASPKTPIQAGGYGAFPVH

| SMILES | IC50 [1] | EC50 [2] |
| --- | --- | --- |
| COc1ccc(NC(=O)N[C@@H]2[C@H]3Oc4ccc(Oc5ccnc6c5CCC(=O)N6)cc4[C@@H]23)c(Cl)c1 [Compound 1.4] | 1.8 nM |  |
| COc1ccc(Cl)c(NC(=O)N[C@@H]2[C@H]3Oc4ccc(Oc5ccnc6c5CCC(=O)N6)cc4[C@@H]23)c1 [Compound 1.5] | 2.2 nM |  |
| O=C1CCc2c(Oc3ccc4c(c3)[C@H]3[C@H](NC(=O)Nc5cc(Br)ccc5Cl)[C@H]3O4)ccnc2N1 [Compound 1.8] | 8.7 nM |  |
| O=C1CCc2c(Oc3ccc4c(c3)[C@H]3[C@H](NC(=O)Nc5ccc(Br)cc5Cl)[C@H]3O4)ccnc2N1 [Compound 1.10] | 6.3 nM |  |
| O=C1CCc2c(Oc3ccc4c(c3)[C@H]3[C@H](NC(=O)Nc5cccc([N+](=O)[O-])c5)[C@H]3O4)ccnc2N1 [Compound 1.13] | 1.8 nM |  |
| COc1ccc(NC(=O)N[C@@H]2[C@H]3Oc4ccc(Oc5ccnc6c5CCC(=O)N6)cc4[C@@H]23)cc1OC [Compound 1.15] | 2.3 nM |  |
| O=C1CCc2c(Oc3ccc4c(c3)[C@H]3[C@H](NC(=O)Nc5ccc6c(c5)CCC6)[C@H]3O4)ccnc2N1 [Compound 1.16] | 2.6 nM |  |
| COc1cc(NC(=O)N[C@@H]2[C@H]3Oc4ccc(Oc5ccnc6c5CCC(=O)N6)cc4[C@@H]23)cc(OC)c1 [Compound 1.17] | 1.5 nM |  |
| CC(C)(C)c1ccc(NC(=O)N[C@@H]2[C@H]3Oc4ccc(Oc5ccnc6c5CCC(=O)N6)cc4[C@@H]23)cc1 [Compound 1.18] | 16 nM |  |
| Cc1cccc(Cl)c1NC(=O)N[C@@H]1[C@H]2Oc3ccc(Oc4ccnc5c4CCC(=O)N5)cc3[C@@H]12 [Compound 1.19] | 5.1 nM | 503 nM |
| CN(C)Cc1ccc(NC(=O)N[C@@H]2[C@H]3Oc4ccc(Oc5ccnc6c5CCC(=O)N6)cc4[C@@H]23)cc1 [Compound 1.26] | 2680 nM |  |
| COc1cc(NC(=O)N[C@@H]2[C@H]3Oc4ccc(Oc5ccnc6c5CCC(=O)N6)cc4[C@@H]23)c(Cl)cc1Cl [Compound 1.27] | 11 nM |  |
| O=C1CCc2c(Oc3ccc4c(c3)[C@H]3[C@H](NC(=O)Nc5ccc(C(F)(F)F)cc5)[C@H]3O4)ccnc2N1 [Compound 1.29] | 6.9 nM | 222 nM |
| O=C1CCc2c(Oc3ccc4c(c3)[C@H]3[C@H](NC(=O)Nc5ccccc5C(F)(F)F)[C@H]3O4)ccnc2N1 [Compound 1.30] | 3 nM | 583 nM |
| O=C1CCc2c(Oc3ccc4c(c3)[C@H]3[C@H](NC(=O)Nc5ccncn5)[C@H]3O4)ccnc2N1 [Compound 1.36] | 1.3 nM |  |
| O=C1CCc2c(Oc3ccc4c(c3)[C@H]3[C@H](NC(=O)Nc5cc(Cl)ccn5)[C@H]3O4)ccnc2N1 [Compound 1.37] | 0.85 nM |  |
| O=C1CCc2c(Oc3ccc4c(c3)[C@H]3[C@H](NC(=O)Nc5ccc(C(F)(F)F)cn5)[C@H]3O4)ccnc2N1 [Compound 1.38] | 4 nM |  |
| Cc1ccncc1NC(=O)N[C@@H]1[C@H]2Oc3ccc(Oc4ccnc5c4CCC(=O)N5)cc3[C@@H]12 [Compound 1.39] | 2.6 nM |  |
| COc1ccc(NC(=O)N[C@@H]2[C@H]3Oc4ccc(Oc5ccnc6c5CCC(=O)N6)cc4[C@@H]23)cc1 [Compound 1.50] | 0.8 nM |  |
| O=C1CCc2c(Oc3ccc4c(c3)[C@H]3[C@H](NC(=O)NC5CCCC5)[C@H]3O4)ccnc2N1 [Compound 1.51] | 0.59 nM | 273 nM |
| O=C1CCc2c(Oc3ccc4c(c3)[C@H]3[C@H](NC(=O)NCc5cccc(C(F)(F)F)c5)[C@H]3O4)ccnc2N1 [Compound 1.54] | 1.9 nM | 2700 nM |
| O=C1CCc2c(Oc3ccc4c(c3)[C@H]3[C@H](NC(=O)NCc5ccc(C(F)(F)F)cc5)[C@H]3O4)ccnc2N1 [Compound 1.56] | 158 nM |  |
| O=C1CCc2c(Oc3ccc4c(c3)[C@H]3[C@H](NC(=O)NCc5cccc(F)c5)[C@H]3O4)ccnc2N1 [Compound 1.58] | 0.77 nM | 534 nM |
| O=C1CCc2c(Oc3ccc4c(c3)[C@H]3[C@H](NC(=O)NCc5ccc(F)cc5)[C@H]3O4)ccnc2N1 [Compound 1.59] | 0.84 nM | 891 nM |

| SMILES | IC50 [1] | EC50 [2] |
| --- | --- | --- |
| O=C1CCc2c(Oc3ccc4c(c3)[C@H]3[C@H](NC(=O)Nc5cccc(OC(F)(F)F)c5)[C@H]3O4)ccnc2N1 [Compound 1.60] | 8.6 nM | 193 nM |
| O=C1CCc2c(Oc3ccc4c(c3)[C@H]3[C@H](NC(=O)Nc5ccc(OC(F)(F)F)cc5)[C@H]3O4)ccnc2N1 [Compound 1.61] | 7.4 nM | 975 nM |
| O=C1CCc2c(Oc3ccc4c(c3)[C@H]3[C@H](NC(=O)Nc5ccccc5OC(F)(F)F)[C@H]3O4)ccnc2N1 [Compound 1.62] | 6.3 nM | 302 nM |
| CN1CCN(Cc2ccc(NC(=O)N[C@@H]3[C@H]4Oc5ccc(Oc6ccnc7c6CCC(=O)N7)cc5[C@@H]34)cc2)CC1 [Compound 1.63] | > 5000 nM |  |
| O=C1CCc2c(Oc3ccc4c(c3)[C@H]3[C@H](NC(=O)Nc5ccc(C(F)(F)F)c(F)c5)[C@H]3O4)ccnc2N1 [Compound 1.64] | 27 nM |  |
| O=C1CCc2c(Oc3ccc4c(c3)[C@H]3[C@H](NC(=O)Nc5cc(C(F)(F)F)cc(C(F)(F)F)c5)[C@H]3O4)ccnc2N1 [Compound 1.65] | 116 nM |  |
| O=C1CCc2c(Oc3ccc4c(c3)[C@H]3[C@H](NC(=O)NC5CCOCC5)[C@H]3O4)ccnc2N1 [Compound 1.67] | 4.2 nM | 4170 nM |
| CN1CCC(NC(=O)N[C@@H]2[C@H]3Oc4ccc(Oc5ccnc6c5CCC(=O)N6)cc4[C@@H]23)CC1 [Compound 1.68] | 20 nM |  |
| O=C1CCc2c(Oc3ccc4c(c3)[C@H]3[C@H](NC(=O)NC5CC5)[C@H]3O4)ccnc2N1 [Compound 1.69] | 30 nM |  |
| O=C1CCc2c(Oc3ccc4c(c3)[C@@H]3[C@@H](NC(=O)Nc5cc(C(F)(F)F)ccn5)[C@@H]3O4)ccnc2N1 [Compound 1.72] | 1.9 nM |  |
| CCN1CCN(Cc2ccc(NC(=O)N[C@@H]3[C@H]4Oc5ccc(Oc6ccnc7c6CCC(=O)N7)cc5[C@@H]34)cc2F)CC1 [Compound 1.74] | 821 nM |  |
| O=C1CCc2c(Oc3ccc4c(c3)[C@H]3C(NC(=O)NCc5ccc(F)cc5C(F)(F)F)[C@H]3O4)ccnc2N1 (stereo partly drawn) [Compound 1.76] | 3.4 nM | 1310 nM |
| CCCCCCCCCCNC(=O)N[C@@H]1[C@H]2Oc3ccc(Oc4ccnc5c4CCC(=O)N5)cc3[C@@H]12 [Compound 1.85] | 129 nM |  |
| CN1CCN(c2ccc(NC(=O)N[C@@H]3[C@H]4Oc5ccc(Oc6ccnc7c6CCC(=O)N7)cc5[C@@H]34)cc2C(F)(F)F)CC1 [Compound 1.86, 1-(4-(4-methylpiperazin-1-yl)-3-(trifluoromethyl)phenyl)-3-((1S,1aS,6bS)-5-((7-oxo-5,6,7,8-tetrahydro-1,8-naphthyridin-4-yl)oxy)-1a,6b-dihydro-1H-cyclopropa[b]benzofuran-1-yl)urea] | 183 nM |  |
| CCN1CCN(c2ccc(NC(=O)N[C@@H]3[C@H]4Oc5ccc(Oc6ccnc7c6CCC(=O)N7)cc5[C@@H]34)cc2C(F)(F)F)CC1 [Compound 1.87] | 227 nM |  |
| O=C(Nc1ccc(F)cc1F)N[C@@H]1[C@H]2Oc3ccc(Oc4ccncn4)cc3[C@@H]12 [Compound 2.1, 1-(2,4-difluorophenyl)-3-((1S,1aS,6bS)-5-(pyrimidin-4-yloxy)-1a,6b-dihydro-1H-cyclopropa[b]benzofuran-1-yl)urea] | 1100 nM |  |
| O=C(Nc1ccc(F)c(F)c1)N[C@@H]1[C@H]2Oc3ccc(Oc4ccncn4)cc3[C@@H]12 [Compound 2.2] | 111 nM |  |
| O=C(Nc1ccc(F)c(C(F)(F)F)c1)N[C@@H]1[C@H]2Oc3ccc(Oc4ccncc4)cc3[C@@H]12 [Compound 2.9] | 24 nM |  |
| O=C(Nc1cc(F)c(F)cc1F)N[C@@H]1[C@H]2Oc3ccc(Oc4ccncc4)cc3[C@@H]12 [Compound 2.10] | 50 nM |  |
| O=C(Nc1cccc(C(F)(F)F)c1)N[C@@H]1[C@H]2Oc3ccc(Oc4ccncc4)cc3[C@@H]12 [Compound 2.11] | 58 nM |  |
| O=C(Nc1ccc(F)c(C(F)(F)F)c1)N[C@@H]1[C@H]2Oc3ccc(Oc4ncnc5[nH]cnc45)cc3[C@@H]12 [Compound 2.12, 1-((1S,1aS,6bS)-5-((9H-purin-6-yl)oxy)-1a,6b-dihydro-1H-cyclopropa[b]benzofuran-1-yl)-3-(4-fluoro-3-(trifluoromethyl)phenyl)urea] | 10 nM |  |
| O=C(Nc1ccc(F)cc1F)N[C@@H]1[C@H]2Oc3ccc(Oc4ncnc5[nH]cnc45)cc3[C@@H]12 [Compound 2.13] | 24 nM |  |
| Nc1cc(Oc2ccc3c(c2)[C@H]2[C@H](NC(=O)Nc4ccc(F)cc4F)[C@H]2O3)ccn1 [Compound 2.14, 1-((1S,1aS,6bS)-5-((2-aminopyridin-4-yl)oxy)-1a,6b-dihydro-1H-cyclopropa[b]benzofuran-1-yl)-3-(2,4-difluorophenyl)urea] | 36 nM |  |
| CNC(=O)c1cc(Oc2ccc3c(c2)[C@H]2[C@H](NC(=O)Nc4ccc(Cl)c(C(F)(F)F)c4)[C@H]2O3)ccn1 [Compound 2.16] | 88 nM |  |
